Measurements from US7750003B2, “Compounds-943” (AstraZeneca AB, priority 2006, dated 2010).

The compounds below were run against recombinant mTOR (FLAG-tagged, residues 1362-2549) (Homo sapiens, UniProt P42345) (assay: In vitro mTOR kinase assay (Test (a), AlphaScreen)). Conditions: ATP 20 μM, read-out: Test (a): IC50 versus mTOR kinase.
Chain of recombinant mTOR (FLAG-tagged, residues 1362-2549) (P42345 1362-2549): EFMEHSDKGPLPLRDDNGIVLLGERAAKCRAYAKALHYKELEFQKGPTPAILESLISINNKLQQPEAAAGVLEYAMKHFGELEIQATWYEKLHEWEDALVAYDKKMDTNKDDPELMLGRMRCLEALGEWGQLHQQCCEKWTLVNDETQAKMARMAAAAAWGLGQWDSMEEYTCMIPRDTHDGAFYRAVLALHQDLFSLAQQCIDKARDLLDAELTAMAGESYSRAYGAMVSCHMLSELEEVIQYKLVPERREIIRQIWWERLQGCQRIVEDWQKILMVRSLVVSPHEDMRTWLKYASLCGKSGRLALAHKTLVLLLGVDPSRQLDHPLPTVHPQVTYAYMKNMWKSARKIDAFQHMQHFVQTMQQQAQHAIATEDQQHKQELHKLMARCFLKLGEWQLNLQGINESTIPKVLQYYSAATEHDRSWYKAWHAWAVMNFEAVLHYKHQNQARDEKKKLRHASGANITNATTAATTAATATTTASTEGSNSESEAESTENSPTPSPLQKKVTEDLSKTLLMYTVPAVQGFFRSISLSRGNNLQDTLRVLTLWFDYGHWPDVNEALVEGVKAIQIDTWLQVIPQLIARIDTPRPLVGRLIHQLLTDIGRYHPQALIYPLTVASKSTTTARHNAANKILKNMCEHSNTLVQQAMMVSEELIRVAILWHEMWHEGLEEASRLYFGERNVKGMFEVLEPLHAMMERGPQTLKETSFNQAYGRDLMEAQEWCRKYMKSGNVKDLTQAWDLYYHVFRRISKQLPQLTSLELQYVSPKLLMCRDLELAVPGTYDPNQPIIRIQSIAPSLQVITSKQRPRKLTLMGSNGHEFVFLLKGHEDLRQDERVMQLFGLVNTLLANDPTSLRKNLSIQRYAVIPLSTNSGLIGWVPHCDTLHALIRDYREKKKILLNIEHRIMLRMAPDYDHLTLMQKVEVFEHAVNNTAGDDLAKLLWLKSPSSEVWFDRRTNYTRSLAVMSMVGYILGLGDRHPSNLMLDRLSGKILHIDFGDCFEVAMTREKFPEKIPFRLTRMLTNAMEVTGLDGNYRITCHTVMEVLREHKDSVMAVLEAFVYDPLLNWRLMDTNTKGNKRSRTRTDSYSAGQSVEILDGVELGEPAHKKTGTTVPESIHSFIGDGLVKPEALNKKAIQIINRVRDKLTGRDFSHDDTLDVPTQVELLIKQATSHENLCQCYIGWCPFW
Assay type: biochemical
In short: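 AlphaScreen read-out: a phospho-T389 p70 S6K antibody on acceptor beads captures the phosphorylated biotin-peptide on donor beads, with signal loss indicating inhibition.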
In the case of C[C@H]1COCCN1c1cc(CS(=O)(=O)c2ccncc2)nc(-c2ccc(NC(=O)NC3CC3)cc2)n1 [Example 43, 3-Cyclopropyl-1-[4-[4-[(3S)-3-methylmorpholin-4-yl]-6-(pyridin-4-ylsulfonylmethyl)pyrimidin-2-yl]phenyl]urea], the IC50 is reported as 76 nM.
Work on CNC(=O)CS(=O)(=O)Cc1cc(N2CCOC[C@@H]2C)nc(-c2ccc(NC(=O)NC3CC3)cc2)n1 [Example 43a, 2-[[2-[4-(cyclopropylcarbamoylamino)phenyl]-6-[(3S)-3-methylmorpholin-4-yl]pyrimidin-4-yl]methylsulfonyl]-N-methyl-acetamide] yielded an IC50 of 87 nM.
C[C@H]1COCCN1c1cc(CS(=O)(=O)c2ccc(F)cc2)nc(-c2ccc(NC(=O)NC3CC3)cc2)n1 [Example 43b, 3-cyclopropyl-1-[4-[4-[(4-fluorophenyl)sulfonylmethyl]-6-[(3S)-3-methylmorpholin-4-yl]pyrimidin-2-yl]phenyl]urea] gave an IC50 of 150 nM.
CC(=O)Nc1ccc(S(=O)(=O)Cc2cc(N3CCOC[C@@H]3C)nc(-c3ccc(NC(=O)NC4CC4)cc3)n2)cc1 [Example 43c, N-[4-[[2-[4-(cyclopropylcarbamoylamino)phenyl]-6-[(3S)-3-methylmorpholin-4-yl]pyrimidin-4-yl]methylsulfonyl]phenyl]acetamide] showed an IC50 of 13 nM.
C[C@H]1COCCN1c1cc(CS(=O)(=O)CCO)nc(-c2ccc(NC(=O)NC3CC3)cc2)n1 [Example 43d, 3-cyclopropyl-1-[4-[4-(2-hydroxyethylsulfonylmethyl)-6-[(3S)-3-methylmorpholin-4-yl]pyrimidin-2-yl]phenyl]urea] showed an IC50 of 11 nM.
Compound C[C@H]1COCCN1c1cc(CS(=O)(=O)c2nccs2)nc(-c2ccc(NC(=O)NC3CC3)cc2)n1 [Example 43e, 3-cyclopropyl-1-[4-[4-[(3S)-3-methylmorpholin-4-yl]-6-(1,3-thiazol-2-ylsulfonylmethyl)pyrimidin-2-yl]phenyl]urea] has an IC50 of 130 nM.
In the case of C[C@H]1COCCN1c1cc(CS(=O)(=O)c2ccccc2C(F)(F)F)nc(-c2ccc(NC(=O)NC3CC3)cc2)n1 [Example 43f, 3-cyclopropyl-1-[4-[4-[(3S)-3-methylmorpholin-4-yl]-6-[[2-(trifluoromethyl)phenyl]sulfonylmethyl]pyrimidin-2-yl]phenyl]urea], the IC50 is reported as 110 nM.
Compound C[C@H]1COCCN1c1cc(CS(=O)(=O)CC(N)=O)nc(-c2ccc(NC(=O)NC3CC3)cc2)n1 [Example 43h, 2-[[2-[4-(cyclopropylcarbamoylamino)phenyl]-6-[(3S)-3-methylmorpholin-4-yl]pyrimidin-4-yl]methylsulfonyl]acetamide] has an IC50 of 7.1 nM.
Work on Cc1csc(S(=O)(=O)Cc2cc(N3CCOC[C@@H]3C)nc(-c3ccc(NC(=O)NC4CC4)cc3)n2)n1 [Example 43i, 3-cyclopropyl-1-[4-[4-[(3S)-3-methylmorpholin-4-yl]-6-[(4-methyl-1,3-thiazol-2-yl)sulfonylmethyl]pyrimidin-2-yl]phenyl]urea] yielded an IC50 of 58 nM.
In the case of CC(=O)NCCS(=O)(=O)Cc1cc(N2CCOC[C@@H]2C)nc(-c2ccc(NC(=O)NC3CC3)cc2)n1 [Example 43j, N-[2-[[2-[4-(cyclopropylcarbamoylamino)phenyl]-6-[(3S)-3-methylmorpholin-4-yl]pyrimidin-4-yl]methylsulfonyl]ethyl]acetamide], the IC50 is reported as 1800 nM.
CN(CCO)C(=O)Nc1ccc(-c2nc(CS(C)(=O)=O)cc(N3CCOCC3)n2)cc1 [Example 45, 1-(2-Hydroxyethyl)-1-methyl-3-[4-[4-(methylsulfonylmethyl)-6-morpholin-4-yl-pyrimidin-2-yl]phenyl]urea] showed an IC50 of 660 nM.
Work on CS(=O)(=O)Cc1cc(N2CCOCC2)nc(-c2ccc(NC(=O)N3CCCCC3)cc2)n1 [Example 45a, N-[4-[4-(methylsulfonylmethyl)-6-morpholin-4-yl-pyrimidin-2-yl]phenyl]piperidine-1-carboxamide] yielded an IC50 of 630 nM.
In the case of C[C@H]1COCCN1c1cc(CS(C)(=O)=O)nc(-c2ccc(NC(=O)N3CCC(N(C)C)CC3)cc2)n1 [Example 45ab, 4-dimethylamino-N-[4-[4-[(3S)-3-methylmorpholin-4-yl]-6-(methylsulfonylmethyl)pyrimidin-2-yl]phenyl]piperidine-1-carboxamide], the IC50 is reported as 390 nM.
CC(C)CNC(=O)Nc1ccc(-c2nc(CS(C)(=O)=O)cc(N3CCOCC3)n2)cc1 [Example 45b, 1-(2-methylpropyl)-3-[4-[4-(methylsulfonylmethyl)-6-morpholin-4-yl-pyrimidin-2-yl]phenyl]urea] gave an IC50 of 120 nM.
In the case of COCCCNC(=O)Nc1ccc(-c2nc(CS(C)(=O)=O)cc(N3CCOCC3)n2)cc1 [Example 45c, 1-(3-methoxypropyl)-3-[4-[4-(methylsulfonylmethyl)-6-morpholin-4-yl-pyrimidin-2-yl]phenyl]urea], the IC50 is reported as 82 nM.
Work on CN(C)CCCCNC(=O)Nc1ccc(-c2nc(CS(C)(=O)=O)cc(N3CCOCC3)n2)cc1 [Example 45d, 1-(4-dimethylaminobutyl)-3-[4-[4-(methylsulfonylmethyl)-6-morpholin-4-yl-pyrimidin-2-yl]phenyl]urea] yielded an IC50 of 560 nM.
CS(=O)(=O)Cc1cc(N2CCOCC2)nc(-c2ccc(NC(=O)NCCN3CCNC3=O)cc2)n1 [Example 45e, 1-[4-[4-(methylsulfonylmethyl)-6-morpholin-4-yl-pyrimidin-2-yl]phenyl]-3-[2-(2-oxoimidazolidin-1-yl)ethyl]urea] was tested, and the IC50 was 560 nM.
With CS(=O)(=O)Cc1cc(N2CCOCC2)nc(-c2ccc(NC(=O)N3CCCC3)cc2)n1 [Example 45f, N-[4-[4-(methylsulfonylmethyl)-6-morpholin-4-yl-pyrimidin-2-yl]phenyl]pyrrolidine-1-carboxamide] the IC50 was 1600 nM.
In the case of CS(=O)(=O)Cc1cc(N2CCOCC2)nc(-c2ccc(NC(=O)N3CCOCC3)cc2)n1 [Example 45g, N-[4-[4-(methylsulfonylmethyl)-6-morpholin-4-yl-pyrimidin-2-yl]phenyl]morpholine-4-carboxamide], the IC50 is reported as 41 nM.
For CS(=O)(=O)Cc1cc(N2CCOCC2)nc(-c2ccc(NC(=O)N3CCC(O)CC3)cc2)n1 [Example 45h, 4-hydroxy-N-[4-[4-(methylsulfonylmethyl)-6-morpholin-4-yl-pyrimidin-2-yl]phenyl]piperidine-1-carboxamide], the IC50 was 140 nM.
CN(C)CCNC(=O)Nc1ccc(-c2nc(CS(C)(=O)=O)cc(N3CCOCC3)n2)cc1 [Example 45j, 1-(2-dimethylaminoethyl)-3-[4-[4-(methylsulfonylmethyl)-6-morpholin-4-yl-pyrimidin-2-yl]phenyl]urea] gave an IC50 of 720 nM.
CS(=O)(=O)Cc1cc(N2CCOCC2)nc(-c2ccc(NC(=O)NCCO)cc2)n1 [Example 45k, 3-(2-hydroxyethyl)-1-[4-[4-(methylsulfonylmethyl)-6-morpholin-4-yl-pyrimidin-2-yl]phenyl]urea] gave an IC50 of 49 nM.
CCN(C)C(=O)Nc1ccc(-c2nc(CS(C)(=O)=O)cc(N3CCOCC3)n2)cc1 [Example 45l, 1-ethyl-1-methyl-3-[4-[4-(methylsulfonylmethyl)-6-morpholin-4-yl-pyrimidin-2-yl]phenyl]urea] was tested, and the IC50 was 1100 nM.
CS(=O)(=O)Cc1cc(N2CCOCC2)nc(-c2ccc(NC(=O)N3CCCC(O)C3)cc2)n1 (stereo not shown) [Example 45m, 3-hydroxy-N-[4-[4-(methylsulfonylmethyl)-6-morpholin-4-yl-pyrimidin-2-yl]phenyl]piperidine-1-carboxamide] showed an IC50 of 170 nM.
In the case of CS(=O)(=O)Cc1cc(N2CCOCC2)nc(-c2ccc(NC(=O)N3CCC(S(C)(=O)=O)C3)cc2)n1 (stereo not shown) [Example 45n, 3-methylsulfonyl-N-[4-[4-(methylsulfonylmethyl)-6-morpholin-4-yl-pyrimidin-2-yl]phenyl]pyrrolidine-1-carboxamide], the IC50 is reported as 630 nM.
CS(=O)(=O)Cc1cc(N2CCOCC2)nc(-c2ccc(NC(=O)NCCN3CCOCC3)cc2)n1 [Example 45o, 1-[4-[4-(methylsulfonylmethyl)-6-morpholin-4-yl-pyrimidin-2-yl]phenyl]-3-(2-morpholin-4-ylethyl)urea] gave an IC50 of 900 nM.
CC(C)(C)CNC(=O)Nc1ccc(-c2nc(CS(C)(=O)=O)cc(N3CCOCC3)n2)cc1 [Example 45p, 1-(2,2-dimethylpropyl)-3-[4-[4-(methylsulfonylmethyl)-6-morpholin-4-yl-pyrimidin-2-yl]phenyl]urea] was tested, and the IC50 was 920 nM.
Work on CS(=O)(=O)Cc1cc(N2CCOCC2)nc(-c2ccc(NC(=O)NCCCO)cc2)n1 [Example 45q, 3-(3-hydroxypropyl)-1-[4-[4-(methylsulfonylmethyl)-6-morpholin-4-yl-pyrimidin-2-yl]phenyl]urea] yielded an IC50 of 32 nM.
Compound CN(Cc1ccccc1)C(=O)Nc1ccc(-c2nc(CS(C)(=O)=O)cc(N3CCOCC3)n2)cc1 [Example 45r, 1-benzyl-1-methyl-3-[4-[4-(methylsulfonylmethyl)-6-morpholin-4-yl-pyrimidin-2-yl]phenyl]urea] has an IC50 of 410 nM.
For CCOCCNC(=O)Nc1ccc(-c2nc(CS(C)(=O)=O)cc(N3CCOCC3)n2)cc1 [Example 45s, 1-(2-ethoxyethyl)-3-[4-[4-(methylsulfonylmethyl)-6-morpholin-4-yl-pyrimidin-2-yl]phenyl]urea], the IC50 was 300 nM.
CC(CO)NC(=O)Nc1ccc(-c2nc(CS(C)(=O)=O)cc(N3CCOCC3)n2)cc1 (stereo not shown) [Example 45t, 1-(1-hydroxypropan-2-yl)-3-[4-[4-(methylsulfonylmethyl)-6-morpholin-4-yl-pyrimidin-2-yl]phenyl]urea] showed an IC50 of 82 nM.
In the case of CS(=O)(=O)Cc1cc(N2CCOCC2)nc(-c2ccc(NC(=O)NC3CCOCC3)cc2)n1 [Example 45u, 1-[4-[4-(methylsulfonylmethyl)-6-morpholin-4-yl-pyrimidin-2-yl]phenyl]-3-(oxan-4-yl)urea], the IC50 is reported as 420 nM.
With CS(=O)(=O)Cc1cc(N2CCOCC2)nc(-c2ccc(NC(=O)N3CCNC(=O)C3)cc2)n1 [Example 45v, [4-[4-(methylsulfonylmethyl)-6-morpholin-4-yl-pyrimidin-2-yl]phenyl]-3-oxo-piperazine-1-carboxamide] the IC50 was 1200 nM.
In the case of CN1CCN(CCNC(=O)Nc2ccc(-c3nc(CS(C)(=O)=O)cc(N4CCOCC4)n3)cc2)CC1 [Example 45w, 1-[2-(4-methylpiperazin-1-yl)ethyl]-3-[4-[4-(methylsulfonylmethyl)-6-morpholin-4-yl-pyrimidin-2-yl]phenyl]urea], the IC50 is reported as 740 nM.
